Test results as given in the supplement of paper PMC10307832.

Tests used:
Assay in all cases: relative viability (nuclei count vs DMSO), 5 days (fraction); higher = more cells survive
Mirin = compound: N=C1NC(=O)/C(=C/c2ccc(O)cc2)S1 [Mirin]
In short: (§1)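 Vehicle-anchored 1536-well plates of lung cancer cell lines, held overnight at 37 °C, were pinned with five library-drug doses (not always all listed) spaced by √10. No medium change followed over the next 5 days, after which the cells were fixed, permeabilised and Hoechst-stained together and imaged at 4×. Nuclei were counted with MetaXpress, and viability is treated-well nuclei over vehicle-well nuclei, taken as a median across plates. Plates passed with control CV below 25% and at least one doubling.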

[1] = compound: CCC1=CN=CN=C1N2CCN(CC2)CC3=NC4=C(N3)C=C(C=C4)C(F)(F)F
In short: as §1

[2] = compound: CCn1c(-c2nonc2N)nc2cnc(Oc3cccc(NC(=O)c4ccc(OCCN5CCOCC5)cc4)c3)cc21
In short: as §1

[3] = compound: CCC1=CN=CN=C1N2CCN(CC2)CC3=NC4=C(N3)C=C(C=C4)C(F)(F)F + CC(=O)Nc1cccc(-n2c(=O)n(C3CC3)c(=O)c3c(Nc4ccc(I)cc4F)n(C)c(=O)c(C)c32)c1 [Trametinib] (partner 0.02 µM)
In short: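 Five library-drug doses in √10 steps were combined with a fixed anchor-drug dose, or a single drug was given alone, by pin tool to lung cancer cell lines in 1536-well plates the day after seeding. Nuclei were stained and counted after 5 days. Relative viability is the nuclei count in treated wells over that in vehicle wells, taken as the median of duplicate plates.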

Row | Cell Line | relative viability (Mirin; 0.25 µM) | relative viability (Mirin; 0.7906 µM) | relative viability (Mirin; 2.5 µM) | relative viability (Mirin; 7.906 µM) | relative viability (Mirin; 25 µM) | relative viability ([1]; 0.04 µM) | relative viability ([1]; 0.1265 µM) | relative viability ([1]; 0.4 µM) | relative viability ([1]; 1.265 µM) | relative viability ([1]; 4 µM) | relative viability ([2]; 0.04 µM) | relative viability ([2]; 0.1265 µM) | relative viability ([2]; 0.4 µM) | relative viability ([2]; 1.265 µM) | relative viability ([2]; 4 µM) | relative viability ([3]; first compound 0.04 µM) | relative viability ([3]; first compound 0.1265 µM) | relative viability ([3]; first compound 0.4 µM) | relative viability ([3]; first compound 1.265 µM) | relative viability ([3]; first compound 4 µM)
1 | NCI-H522 | 0.979 | 0.9 | 1.06 | 0.753 | 0.655 | 0.833 | 1.03 | 0.931 | 0.799 | 0.919 | 1.13 | 0.815 | 0.74 | 0.576 | 0.698 | 0.797 | 0.848 | 0.761 | 0.692 | 0.795
2 | ChaGo-K-1 | 0.986 | 0.916 | 0.93 | 0.887 | 0.833 | 1.01 | 0.961 | 0.932 | 0.961 | 0.97 | 1.14 | 1.02 | 0.801 | 0.833 | 0.879 | 0.93 | 0.894 | 0.821 | 0.869 | 0.859
3 | COR-L23 | 1.04 | 1.13 | 1.09 | 1.06 | 1.02 | 0.985 | 0.989 | 0.937 | 0.932 | 0.922 | 1.1 | 0.846 | 0.497 | 0.252 | 0.19 | 0.569 | 0.682 | 0.524 | 0.47 | 0.583
4 | EMC-BAC-2 | 0.993 | 0.907 | 1.01 | 0.857 | 0.971 | 0.77 | 0.877 | 0.925 | 0.802 | 1.15 | 0.94 | 0.862 | 0.43 | 0.405 | 0.343 |  | 0.857 | 0.841 | 0.891 | 0.951
5 | LCLC-103H | 0.99 | 0.977 | 1.05 | 0.929 | 1.07 | 1.02 | 0.927 | 0.928 | 0.841 | 1.11 | 1.09 | 0.981 | 0.783 | 0.705 | 0.775 | 0.724 | 0.731 | 0.673 | 0.683 | 0.639
6 | LK-2 | 0.881 | 0.686 | 1.03 | 0.647 | 0.534 | 0.989 | 1.01 | 0.832 | 0.718 | 0.912 | 1.23 | 1.19 | 0.774 | 0.686 | 0.843 | 0.854 | 0.727 | 0.666 | 0.452 | 0.567
